Data reported in ChEMBL document CHEMBL1151757, “Synthesis, radiosynthesis, and biological evaluation of fluorine-18-labeled 2beta-carbo(fluoroalkoxy)-3beta-(3'-((Z)-2-haloethenyl)phenyl)nortropanes: candidate radioligands for in vivo imaging of the serotonin transporter with positron emission tomography” (J Med Chem, 2008).

Legend:
[1] = Ratio of drug uptake in midbrain to cerebellum in anesthetized cynomolgus monkey after 125 mins postinjection; format: ADME, organism-based, Macaca fascicularis; conditions: in vivo
[2] = Octanol-water partition coefficient, log P at pH 7.4 by shake-flask method; format: physicochemical
[3] = test system: Putamen; test: Drug uptake in anesthetized cynomolgus monkey brain putamen after 145 mins postinjection; format: ADME, organism-based, Macaca fascicularis; conditions: in vivo
[4] = Drug uptake in anesthetized cynomolgus monkey brain cerebellum after 235 mins postinjection; format: ADME, organism-based, Macaca fascicularis; conditions: in vivo
[5] = test system: Pons; test: Drug uptake in anesthetized cynomolgus monkey brain pons after 45 mins postinjection; format: ADME, organism-based, Macaca fascicularis; conditions: in vivo, 0.75 h
[6] = test system: Medulla; test: Drug uptake in anesthetized cynomolgus monkey brain medulla after 3.5 mins postinjection; format: ADME, organism-based, Macaca fascicularis; conditions: in vivo
[7] = Ratio of drug uptake in putamen to cerebellum in anesthetized cynomolgus monkey after 3.5 mins postinjection; format: ADME, organism-based, Macaca fascicularis; conditions: in vivo
[8] = Ratio of drug uptake in midbrain to cerebellum in anesthetized cynomolgus monkey after 185 mins postinjection; format: ADME, organism-based, Macaca fascicularis; conditions: in vivo
[9] = Drug uptake in anesthetized cynomolgus monkey brain frontal lobe after 18.5 mins postinjection; format: ADME, organism-based, Macaca fascicularis; conditions: in vivo
[10] = Drug uptake in anesthetized cynomolgus monkey brain cerebellum after 6.5 mins postinjection; format: ADME, organism-based, Macaca fascicularis; conditions: in vivo
[11] = Ratio of drug uptake in pons to cerebellum in anesthetized cynomolgus monkey after 125 mins postinjection; format: ADME, organism-based, Macaca fascicularis; conditions: in vivo
[12] = Drug uptake in anesthetized cynomolgus monkey brain frontal lobe after 22.5 mins postinjection; format: ADME, organism-based, Macaca fascicularis; conditions: in vivo, 0.375 h
[13] = Ratio of drug uptake in caudate to cerebellum in anesthetized cynomolgus monkey after 135 mins postinjection; format: ADME, organism-based, Macaca fascicularis; conditions: in vivo, 2.25 h
[14] = test system: Thalamus; test: Drug uptake in anesthetized cynomolgus monkey brain thalamus after 45 mins postinjection; format: ADME, organism-based, Macaca fascicularis; design: unit not given here; conditions: in vivo, 0.75 h
[15] = test system: Thalamus; test: Drug uptake in anesthetized cynomolgus monkey brain thalamus after 225 mins postinjection; format: ADME, organism-based, Macaca fascicularis; design: unit not given here; conditions: in vivo, 3.75 h
[16] = test system: Putamen; test: Drug uptake in anesthetized cynomolgus monkey brain putamen after 65 mins postinjection; format: ADME, organism-based, Macaca fascicularis; design: unit not given here; conditions: in vivo
[17] = Ratio of drug uptake in caudate to cerebellum in anesthetized cynomolgus monkey after 225 mins postinjection; format: ADME, organism-based, Macaca fascicularis; conditions: in vivo, 3.75 h
[18] = test system: Thalamus; test: Drug uptake in anesthetized cynomolgus monkey brain thalamus after 75 mins postinjection; format: ADME, organism-based, Macaca fascicularis; design: unit not given here; conditions: in vivo, 1.25 h
[19] = test system: Pons; test: Drug uptake in anesthetized cynomolgus monkey brain pons after 35 mins postinjection; format: ADME, organism-based, Macaca fascicularis; conditions: in vivo
[20] = test system: Putamen; test: Drug uptake in anesthetized cynomolgus monkey brain putamen after 95 mins postinjection; format: ADME, organism-based, Macaca fascicularis; design: unit not given here; conditions: in vivo
[21] = test system: Midbrain; test: Drug uptake in anesthetized cynomolgus monkey brain midbrain after 75 mins postinjection; format: ADME, organism-based, Macaca fascicularis; design: unit not given here; conditions: in vivo, 1.25 h
[22] = Ratio of drug uptake in frontal lobe to cerebellum in anesthetized cynomolgus monkey after 145 mins postinjection; format: ADME, organism-based, Macaca fascicularis; conditions: in vivo
[23] = test system: Caudate; test: Drug uptake in anesthetized cynomolgus monkey brain caudate after 105 mins postinjection; format: ADME, organism-based, Macaca fascicularis, Caudate nucleus; conditions: in vivo, 1.75 h
[24] = Drug uptake in anesthetized cynomolgus monkey brain frontal lobe after 27.5 mins postinjection; format: ADME, organism-based, Macaca fascicularis; conditions: in vivo
[25] = Drug uptake in anesthetized cynomolgus monkey brain cerebellum after 215 mins postinjection; format: ADME, organism-based, Macaca fascicularis; conditions: in vivo
[26] = test system: Caudate; test: Drug uptake in anesthetized cynomolgus monkey brain caudate after 225 mins postinjection; format: ADME, organism-based, Macaca fascicularis, Caudate nucleus; conditions: in vivo, 3.75 h
[27] = test system: Thalamus; test: Drug uptake in anesthetized cynomolgus monkey brain thalamus after 1.5 mins postinjection; format: ADME, organism-based, Macaca fascicularis; conditions: in vivo, 0.025 h
[28] = Ratio of drug uptake in putamen to cerebellum in anesthetized cynomolgus monkey after 0.5 mins postinjection; format: ADME, organism-based, Macaca fascicularis; conditions: in vivo
[29] = test system: Pons; test: Drug uptake in anesthetized cynomolgus monkey brain pons after 195 mins postinjection; format: ADME, organism-based, Macaca fascicularis; conditions: in vivo, 3.25 h
[30] = test system: Midbrain; test: Drug uptake in anesthetized cynomolgus monkey brain midbrain after 1.5 mins postinjection; format: ADME, organism-based, Macaca fascicularis; design: unit not given here; conditions: in vivo, 0.025 h
[31] = Drug uptake in anesthetized cynomolgus monkey brain frontal lobe after 145 mins postinjection; format: ADME, organism-based, Macaca fascicularis; conditions: in vivo
[32] = Ratio of drug uptake in occipital lobe to cerebellum in anesthetized cynomolgus monkey after 135 mins postinjection; format: ADME, organism-based, Macaca fascicularis; conditions: in vivo, 2.25 h
[33] = Drug uptake in anesthetized cynomolgus monkey brain frontal lobe after 55 mins postinjection; format: ADME, organism-based, Macaca fascicularis; conditions: in vivo
[34] = test system: Medulla; test: Drug uptake in anesthetized cynomolgus monkey brain medulla after 75 mins postinjection; format: ADME, organism-based, Macaca fascicularis; conditions: in vivo, 1.25 h
[35] = test system: Putamen; test: Drug uptake in anesthetized cynomolgus monkey brain putamen after 12.5 mins postinjection; format: ADME, organism-based, Macaca fascicularis; design: unit not given here; conditions: in vivo
[36] = test system: Caudate; test: Drug uptake in anesthetized cynomolgus monkey brain caudate after 18.5 mins postinjection; format: ADME, organism-based, Macaca fascicularis, Caudate nucleus; conditions: in vivo
[37] = test system: Pons; test: Drug uptake in anesthetized cynomolgus monkey brain pons after 2.5 mins postinjection; format: ADME, organism-based, Macaca fascicularis; conditions: in vivo
[38] = test system: Caudate; test: Drug uptake in anesthetized cynomolgus monkey brain caudate after 205 mins postinjection; format: ADME, organism-based, Macaca fascicularis, Caudate nucleus; conditions: in vivo
[39] = test system: Midbrain; test: Drug uptake in anesthetized cynomolgus monkey brain midbrain after 235 mins postinjection; format: ADME, organism-based, Macaca fascicularis; conditions: in vivo
[40] = test system: Putamen; test: Drug uptake in anesthetized cynomolgus monkey brain putamen after 45 mins postinjection; format: ADME, organism-based, Macaca fascicularis; design: unit not given here; conditions: in vivo, 0.75 h
[41] = test system: Putamen; test: Drug uptake in anesthetized cynomolgus monkey brain putamen after 235 mins postinjection; format: ADME, organism-based, Macaca fascicularis; conditions: in vivo
[42] = Ratio of drug uptake in occipital lobe to cerebellum in anesthetized cynomolgus monkey after 12.5 mins postinjection; format: ADME, organism-based, Macaca fascicularis; conditions: in vivo
[43] = Ratio of drug uptake in caudate to cerebellum in anesthetized cynomolgus monkey after 65 mins postinjection; format: ADME, organism-based, Macaca fascicularis; conditions: in vivo
[44] = test system: Midbrain; test: Drug uptake in anesthetized cynomolgus monkey brain midbrain after 15.5 mins postinjection; format: ADME, organism-based, Macaca fascicularis; design: unit not given here; conditions: in vivo
[45] = Drug uptake in anesthetized cynomolgus monkey brain cerebellum after 85 mins postinjection; format: ADME, organism-based, Macaca fascicularis; conditions: in vivo
[46] = test system: Thalamus; test: Drug uptake in anesthetized cynomolgus monkey brain thalamus after 85 mins postinjection; format: ADME, organism-based, Macaca fascicularis; design: unit not given here; conditions: in vivo
[47] = test system: Thalamus; test: Drug uptake in anesthetized cynomolgus monkey brain thalamus after 3.5 mins postinjection; format: ADME, organism-based, Macaca fascicularis; design: unit not given here; conditions: in vivo
[48] = test system: Putamen; test: Drug uptake in anesthetized cynomolgus monkey brain putamen after 9.5 mins postinjection; format: ADME, organism-based, Macaca fascicularis; design: unit not given here; conditions: in vivo
[49] = test system: Caudate; test: Drug uptake in anesthetized cynomolgus monkey brain caudate after 75 mins postinjection; format: ADME, organism-based, Macaca fascicularis, Caudate nucleus; conditions: in vivo, 1.25 h
[50] = Ratio of drug uptake in frontal lobe to cerebellum in anesthetized cynomolgus monkey after 125 mins postinjection; format: ADME, organism-based, Macaca fascicularis; conditions: in vivo
[51] = test system: Putamen; test: Drug uptake in anesthetized cynomolgus monkey brain putamen after 27.5 mins postinjection; format: ADME, organism-based, Macaca fascicularis; design: unit not given here; conditions: in vivo
[52] = Ratio of drug uptake in putamen to cerebellum in anesthetized cynomolgus monkey after 75 mins postinjection; format: ADME, organism-based, Macaca fascicularis; conditions: in vivo, 1.25 h
[53] = Drug uptake in anesthetized cynomolgus monkey brain frontal lobe after 35 mins postinjection; format: ADME, organism-based, Macaca fascicularis; conditions: in vivo
[54] = test system: Medulla; test: Drug uptake in anesthetized cynomolgus monkey brain medulla after 12.5 mins postinjection; format: ADME, organism-based, Macaca fascicularis; conditions: in vivo
[55] = test system: Midbrain; test: Drug uptake in anesthetized cynomolgus monkey brain midbrain after 45 mins postinjection; format: ADME, organism-based, Macaca fascicularis; design: unit not given here; conditions: in vivo, 0.75 h
[56] = test system: Putamen; test: Drug uptake in anesthetized cynomolgus monkey brain putamen after 35 mins postinjection; format: ADME, organism-based, Macaca fascicularis; design: unit not given here; conditions: in vivo
[57] = Ratio of drug uptake in midbrain to cerebellum in anesthetized cynomolgus monkey after 235 mins postinjection; format: ADME, organism-based, Macaca fascicularis; conditions: in vivo
[58] = test system: Thalamus; test: Drug uptake in anesthetized cynomolgus monkey brain thalamus after 105 mins postinjection; format: ADME, organism-based, Macaca fascicularis; design: unit not given here; conditions: in vivo, 1.75 h
[59] = test system: Caudate; test: Drug uptake in anesthetized cynomolgus monkey brain caudate after 95 mins postinjection; format: ADME, organism-based, Macaca fascicularis, Caudate nucleus; conditions: in vivo
[60] = test system: Medulla; test: Drug uptake in anesthetized cynomolgus monkey brain medulla after 185 mins postinjection; format: ADME, organism-based, Macaca fascicularis; conditions: in vivo
[61] = test system: Pons; test: Drug uptake in anesthetized cynomolgus monkey brain pons after 1.5 mins postinjection; format: ADME, organism-based, Macaca fascicularis; conditions: in vivo, 0.025 h
[62] = test system: Midbrain; test: Drug uptake in anesthetized cynomolgus monkey brain midbrain after 12.5 mins postinjection; format: ADME, organism-based, Macaca fascicularis; design: unit not given here; conditions: in vivo
[63] = Drug uptake in anesthetized cynomolgus monkey brain frontal lobe after 85 mins postinjection; format: ADME, organism-based, Macaca fascicularis; conditions: in vivo
[64] = test system: Putamen; test: Drug uptake in anesthetized cynomolgus monkey brain putamen after 195 mins postinjection; format: ADME, organism-based, Macaca fascicularis; conditions: in vivo, 3.25 h
[65] = Ratio of drug uptake in medulla to cerebellum in anesthetized cynomolgus monkey after 85 mins postinjection; format: ADME, organism-based, Macaca fascicularis; conditions: in vivo
[66] = Drug uptake in anesthetized cynomolgus monkey brain occipital lobe after 18.5 mins postinjection; format: ADME, organism-based, Macaca fascicularis; conditions: in vivo
[67] = Drug uptake in anesthetized cynomolgus monkey brain frontal lobe after 9.5 mins postinjection; format: ADME, organism-based, Macaca fascicularis; conditions: in vivo
[68] = test system: Midbrain; test: Drug uptake in anesthetized cynomolgus monkey brain midbrain after 0.5 mins postinjection; format: ADME, organism-based, Macaca fascicularis; design: unit not given here; conditions: in vivo

SMILES: O=C(OCCC[18F])C1C2CCC(CC1c1cccc(/C=C\I)c1)N2 (stereo not drawn)
- Ratio [1]: 1.6
- logD [2]: 1.64
- Drug uptake [3]: 3.91
- Drug uptake [4]: 1.93
- Drug uptake [5]: 4.5
- Drug uptake [6]: 2.2
- Ratio [7]: 0.8
- Ratio [8]: 1.9
- Drug uptake [9]: 2.5
- Drug uptake [10]: 3.91
- Ratio [11]: 1.4
- Drug uptake [12]: 2.64
- Ratio [13]: 1.3
- Drug uptake [14]: 4.84
- Drug uptake [15]: 2.83
- Drug uptake [16]: 4.95
- Ratio [17]: 1.3
- Drug uptake [18]: 4.76
- Drug uptake [19]: 4.25
- Drug uptake [20]: 4.67
- Drug uptake [21]: 5
- Ratio [22]: 1
- Drug uptake [23]: 3.7
- Drug uptake [24]: 2.72
- Drug uptake [25]: 2.06
- Drug uptake [26]: 2.46
- Drug uptake [27]: 0.24
- Ratio [28]: 1.5
- Drug uptake [29]: 3.26
- Drug uptake [30]: 0.32
- Drug uptake [31]: 2.29
- Ratio [32]: 1.1
- Drug uptake [33]: 2.82
- Drug uptake [34]: 5.16
- Drug uptake [35]: 4.08
- Drug uptake [36]: 3.38
- Drug uptake [37]: 0.95
- Drug uptake [38]: 2.65
- Drug uptake [39]: 3.57
- Drug uptake [40]: 5.05
- Drug uptake [41]: 3.02
- Ratio [42]: 0.8
- Ratio [43]: 1
- Drug uptake [44]: 4.45
- Drug uptake [45]: 3.6
- Drug uptake [46]: 4.59
- Drug uptake [47]: 1.44
- Drug uptake [48]: 3.75
- Drug uptake [49]: 4.05
- Ratio [50]: 0.9
- Drug uptake [51]: 4.9
- Ratio [52]: 1.3
- Drug uptake [53]: 2.85
- Drug uptake [54]: 4.73
- Drug uptake [55]: 5.02
- Drug uptake [56]: 4.99
- Ratio [57]: 1.9
- Drug uptake [58]: 4.44
- Drug uptake [59]: 3.82
- Drug uptake [60]: 3.93
- Drug uptake [61]: 0.21
- Drug uptake [62]: 4.11
- Drug uptake [63]: 2.71
- Drug uptake [64]: 3.39
- Ratio [65]: 1.3
- Drug uptake [66]: 3.85
- Drug uptake [67]: 2.11
- Drug uptake [68]: 0.01
